Test results from US20220257500A1, “USE OF A HYDRO-ALCOHOLIC EXTRACT OF EVENING PRIMROSE FOR HYDRATING SKIN AND INCREASING BARRIER FUNCTION” (L'OREAL, priority 2019, published 2022).

Assays:
Assay type in all cases: cell-based
Details in all cases: normal human epidermal keratinocytes, 24 h, normalised to GAPDH
[1] = test system: SPRR1A (small proline-rich protein 1A); assay: RT-qPCR analysis of gene expression, SPRR1A transcript
Experimental: (§1) Normal, human epidermal keratinocytes were used to conduct the study. Normal, human epidermal keratinocytes were seeded in 48-well culture plates and cultured in culture medium for 3 days at 37° C. under 5% CO2 with renewal of the culture medium after the first 24 hours of culture. After incubation, the culture medium was replaced by test medium (supplemented with 1.5 mM CaCl2) containing or not containing (control) the compounds to be tested, and the cells were incubated for 24 hours. All conditions were performed with n=2. After treatment, the culture media were removed and the cells rinsed twice with PBS (w/o CaCl2, w/o MgCl2). Total RNAs were isolated using a magnetic bead extraction kit, following the manufacturer's instructions (MagMAX™-96 Total RNA Isolation Kit, Ambion). Quantification of RNAs and quality control thereof were analysed using Labchip GX (Perkin Elmer). Expression of the selected transcripts was analysed by two-step quantitative PCR. First, the cDNAs were retro-transcribed from the RNAs using the Quantitect® Reverse transcription kit (QIAGEN) following the manufacturer's instructions. The quantitative PCR experiments were performed using a LightCycler® 480 Real-Time PCR System in 384-well plate (Roche) following the incorporation technique of SYBR®Green (Roche) (Table 4). The results are expressed as fold change (Fc) as compared with the non-treated control, after normalising relative expressions in relation to expression of a housekeeping gene (GAPDH). The expression of a gene is considered to be stimulated when it is multiplied at least by 1.5.

FLG2 (filaggrin 2) = assay: RT-qPCR analysis of gene expression, FLG2 transcript
Experimental: as §1

[2] = test system: LCE3D (late cornified envelope 3D); assay: RT-qPCR analysis of gene expression, LCE3D transcript
Experimental: as §1

CNFN (cornifelin) = assay: RT-qPCR analysis of gene expression, CNFN transcript
Experimental: as §1

Molecule | SPRR1A Fold change vs Control (Fc) ([1]; 0.1 mg/mL) | FLG2 Fold change vs Control (Fc) (FLG2 (filaggrin 2); 0.1 mg/mL) | LCE3D Fold change vs Control (Fc) ([2]; 0.1 mg/mL) | CNFN Fold change vs Control (Fc) (CNFN (cornifelin); 0.1 mg/mL) | SPRR1A Fold change vs Control (Fc) ([1]; 0.004 mg/mL) | FLG2 Fold change vs Control (Fc) (FLG2 (filaggrin 2); 0.004 mg/mL) | LCE3D Fold change vs Control (Fc) ([2]; 0.004 mg/mL) | CNFN Fold change vs Control (Fc) (CNFN (cornifelin); 0.004 mg/mL)
O=c1c(O[C@@H]2O[C@H](CO)[C@H](O)[C@H](O)[C@H]2O)c(-c2ccc(O)c(O)c2)oc2cc(O)cc(O)c12 [Hyperoside, hyperoside] | 0.64 fold change | 0.5 fold change | 0.61 fold change | 0.61 fold change |  |  |  | 
oenothein B |  |  |  |  | 1.07 fold change | 1.36 fold change | 0.87 fold change | 0.76 fold change
O=C(O)[C@H]1O[C@@H](Oc2cc(O)c3c(=O)cc(-c4ccc(O)c(O)c4)oc3c2)[C@H](O)[C@@H](O)[C@@H]1O [Luteoline-7-O-glucuronide, luteoline-7-O-glucuronide] | 0.41 fold change | 0.4 fold change | 0.44 fold change | 0.42 fold change |  |  |  | 
O=c1c(O[C@@H]2O[C@H](CO)[C@@H](O)[C@H](O)[C@H]2O)c(-c2ccc(O)c(O)c2)oc2cc(O)cc(O)c12 [Isoquercitrin, isoquercitrin] | 0.57 fold change | 0.9 fold change | 0.47 fold change | 0.54 fold change |  |  |  | 
O=c1oc2c(O)c(O)cc3c(=O)oc4c(O)c(O)cc1c4c23 [Ellagic acid, ellagic acid] |  |  |  |  | 0.96 fold change | 1.22 fold change | 0.51 fold change | 0.64 fold change
O=c1c(O)c(-c2ccc(O)c(O)c2)oc2cc(O)cc(O)c12 [Quercetin, quercetin] | 0.13 fold change | 0.12 fold change | 0.2 fold change | 0.13 fold change |  |  |  | 
